Read-outs that look alike come from different tables or passages of the source.
Tests used:
MAP4K1 (HPK1) = molecular target: T1, MAP4K1 (HPK1) (Homo sapiens, UniProt Q92918); assay: Inhibition of MAP4K1 biochemical enzymatic activity (EZReader 2 electrophoretic mobility shift); conditions: HPK1 (Invitrogen), S6K2tide 1.5 μM, 120 min; ATP 26 μM or 1000 μM (not given)
T1 construct: purchased Invitrogen
Method in brief: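 Untreated enzyme (0.1-15 nM) was incubated with 1.5 μM fluorescent peptide and 20-1000 μM ATP (apparent Km or 1 mM) in HEPES pH 7.5, MgCl2, DTT, Brij 35 at 25° C. for 60-180 min, with 1% DMSO and a 10-point 4-fold compound series. After an EDTA stop, product/substrate peptide peak ratio was read by mobility shift.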

[1] = system: Primary T Cell (expanded CD3+ T cells); assay: T cell enhancement of cytokines: IL2 measurement (HTRF) in stimulated expanded CD3+ T cells; assay type: cell-based, human; conditions: plate-bound anti-CD3 and soluble anti-CD28, 24 h, IL2 by HTRF, read-out: IL-2 Primary T Cell EC50
Method in brief: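 Healthy-donor T cells (95-98% CD3+) expanded 10-14 days with IL2 and CD3/CD28 beads, then cryopreserved. 100K cells/well in X-VIVO 10 serum-free medium were stimulated with plate-bound anti-CD3 plus soluble anti-CD28 with compound at various concentrations for 24 h. Secreted IL2 measured by HTRF after 24 h antibody incubation.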

T1 sequence (Q92918 whole entry): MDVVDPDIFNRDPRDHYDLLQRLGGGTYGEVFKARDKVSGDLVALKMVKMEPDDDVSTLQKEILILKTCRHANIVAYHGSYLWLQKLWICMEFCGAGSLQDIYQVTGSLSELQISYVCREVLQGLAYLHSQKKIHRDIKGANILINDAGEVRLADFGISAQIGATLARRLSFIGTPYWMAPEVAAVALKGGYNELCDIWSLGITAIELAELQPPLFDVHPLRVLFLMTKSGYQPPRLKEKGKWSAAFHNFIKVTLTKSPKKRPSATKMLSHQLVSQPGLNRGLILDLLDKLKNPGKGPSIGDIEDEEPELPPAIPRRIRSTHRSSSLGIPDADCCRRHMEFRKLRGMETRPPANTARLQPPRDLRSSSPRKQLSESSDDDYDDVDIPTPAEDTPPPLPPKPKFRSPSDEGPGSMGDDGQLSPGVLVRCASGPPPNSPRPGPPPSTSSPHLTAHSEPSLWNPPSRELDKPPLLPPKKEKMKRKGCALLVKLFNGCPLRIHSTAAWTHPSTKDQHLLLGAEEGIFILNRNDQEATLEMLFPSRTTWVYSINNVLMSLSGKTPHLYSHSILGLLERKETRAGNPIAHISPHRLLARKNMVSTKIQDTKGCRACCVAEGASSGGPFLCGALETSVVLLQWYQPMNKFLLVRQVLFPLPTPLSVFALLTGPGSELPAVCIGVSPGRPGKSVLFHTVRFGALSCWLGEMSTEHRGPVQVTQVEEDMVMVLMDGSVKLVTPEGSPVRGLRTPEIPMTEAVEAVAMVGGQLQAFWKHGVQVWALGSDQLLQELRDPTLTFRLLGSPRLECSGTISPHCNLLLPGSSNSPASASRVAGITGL

Row | IC50 (MAP4K1 (HPK1)) [nM] | EC50 ([1]; Homo sapiens, T-cell, 24 h) [nM] | EC50 [1] [nM] | SMILES
1 | 0.19 | 66 | – | CC[C@@](C)(N)c1cnc(O[C@@H](C)CCS(=O)(=O)CC)c2cnc(Nc3ccc4c(n3)[C@@H](C)C(C)(C)OC4=O)cc12 [Compound 132]
2 | 0.15 | 15 | – | CCS(=O)(=O)[C@H]1C[C@@H](Oc2ncc([C@](C)(N)COC)c3cc(Nc4ccc5c(n4)[C@@H](C)C(C)(C)OC5=O)ncc23)C1 [Compound 141]
3 | 0.27 | 25 | – | CC[C@@](C)(N)c1cnc(O[C@H](C)CCS(C)(=O)=O)c2cnc(Nc3ccc4c(n3)[C@@H](C)[C@@H](C)OC4=O)cc12 (single isomer, unassigned) [Compound 153]
4 | 0.16 | – | 43 | CC[C@@](C)(N)c1cnc(O[C@H](C)C[C@@H](C)[S@@](C)(=N)=O)c2cnc(Nc3ccc4c(n3)C(C)(C)[C@@H](C)OC4=O)cc12 (single isomer, unassigned) [Compound 183]
5 | 0.37 | 17 | – | C[C@@H]1OC(=O)c2ccc(Nc3cc4c(C(C)(C)N)cnc(O[C@@H](C)C[C@@H]5CCCS5(=O)=O)c4cn3)nc2[C@H]1C (single isomer, unassigned) [Compound 155]
6 | 0.36 | 74 | – | COC[C@@](C)(N)c1cnc(O[C@H]2C[C@H](CS(C)(=O)=O)C2)c2cnc(Nc3ccc4c(n3)[C@@H](C)C(C)(C)OC4=O)cc12 [Compound 139]
7 | 0.32 | 14 | – | CC[C@@](C)(N)c1cnc(O[C@@H]2C[C@H](S(C)(=O)=O)[C@H]2C)c2cnc(Nc3ccc4c(n3)[C@@H](C)[C@H](C)OC4=O)cc12 (single isomer, unassigned) [Compound 150]
8 | 0.2 | 23 | – | CC[C@@](C)(N)c1cnc(O[C@H](C)CCS(=O)(=O)CC)c2cnc(Nc3ccc4c(n3)[C@@H](C)C(C)(C)OC4=O)cc12 (single isomer, unassigned) [Compound 133]
9 | 0.21 | 32 | – | COC[C@@](C)(N)c1cnc(O[C@H]2C[C@@H](S(=O)(=O)C3CC3)C2)c2cnc(Nc3ccc4c(n3)[C@@H](C)C(C)(C)OC4=O)cc12 [Compound 145]
10 | 0.29 | 11 | – | CC[C@@](C)(N)c1cnc(O[C@H](C)C[C@@H](C)S(C)(=O)=O)c2cnc(Nc3ccc4c(n3)[C@@H](C)[C@@H](C)OC4=O)cc12 (single isomer, unassigned) [Compound 152]

Further lines, the compound ahead of its results:

Row | SMILES | IC50 (MAP4K1 (HPK1)) [nM] | EC50 ([1]; Homo sapiens, T-cell, 24 h) [nM] | EC50 [1] [nM]
11 | C[C@@H]1COC(=O)c2ccc(Nc3cc4c(C(C)(C)N)cnc(O[C@H]5C[C@@H](S(=O)(=O)C6CC6)C5)c4cn3)nc21 (single isomer, unassigned) [Compound 26] | 0.26 | 17 | –
12 | CC(C)(N)c1cnc(O[C@H]2C[C@@H](S(C)(=O)=O)C2)c2cnc(Nc3ccc4c(n3)C(C)(C)COC4=O)cc12 [Compound 11] | 0.29 | 39 | –
13 | CCC[C@@H](N)c1cnc(O[C@H]2C[C@@H](S(C)(=O)=O)C2)c2cnc(Nc3ccc4c(n3)[C@@H](C)C(C)(C)OC4=O)cc12 (single isomer, unassigned) [Compound 79] | 0.34 | 94 | –
14 | CCS(=O)(=O)CC[C@@H](C)Oc1ncc(C(C)(C)N)c2cc(Nc3ccc4c(n3)[C@@H](C)C(C)(C)OC4=O)ncc12 (single isomer, unassigned) [Compound 98] | 0.23 | 67 | –
15 | C[C@@H]1c2nc(Nc3cc4c(C(C)(C)N)cnc(O[C@H]5C[C@@H](S(=O)(=O)N(C)C)C5)c4cn3)ccc2C(=O)OC1(C)C [Compound 118] | 0.11 | 27 | –
16 | CC[C@@](C)(N)c1cnc(O[C@H](C)C[C@@H](C)S(C)(=O)=O)c2cnc(Nc3ccc4c(n3)C3(CC3)[C@@H](C)OC4=O)cc12 (single isomer, unassigned) [Compound 104] | 0.17 | 10 | –
17 | CC[C@@](C)(N)c1cnc(O[C@@H](C)CCS(C)(=O)=O)c2cnc(Nc3ccc4c(n3)[C@@H](C)[C@H](C)OC4=O)cc12 [Compound 53] | 0.11 | 21 | –
18 | C[C@H](CCS(C)(=O)=O)Oc1ncc(C(C)(C)N)c2cc(Nc3ccc4c(n3)C3(CC3)[C@@H](C)OC4=O)ncc12 (single isomer, unassigned) [Compound 29] | 0.29 | 24 | –
19 | C[C@H](C[C@@H](C)S(C)(=O)=O)Oc1ncc(C(C)(C)N)c2cc(Nc3ccc4c(n3)C3(CC3)[C@@H](C)OC4=O)ncc12 (single isomer, unassigned) [Compound 65] | 0.2 | 11 | –
20 | CCS(=O)(=O)[C@H](C)C[C@@H](C)Oc1ncc(C(C)(C)N)c2cc(Nc3ccc4c(n3)[C@@H](C)C(C)(C)OC4=O)ncc12 [Compound 128] | 0.16 | 36 | –
21 | CC[C@@](C)(N)c1cnc(O[C@H]2C[C@@H](S(=O)(=O)CC)C2)c2cnc(Nc3ccc4c(n3)[C@@H](C)C(C)(C)OC4=O)cc12 [Compound 117] | 0.05 | 6 | –
22 | CCC[C@@](C)(N)c1cnc(O[C@H](C)CCS(C)(=O)=O)c2cnc(Nc3ccc4c(n3)CC(C)(C)OC4=O)cc12 (single isomer, unassigned) [Compound 85] | 0.37 | 85 | –
23 | CC[C@@](C)(N)c1cnc(O[C@H](C)C[C@@H](C)S(C)(=O)=O)c2cnc(Nc3ccc4c(n3)[C@@H](C)[C@H](C)OC4=O)cc12 [Compound 90] | 0.11 | 3 | –
24 | C[C@@H]1OC(=O)c2cc(Nc3cncc4c(OCCCS(C)(=O)=O)ncc(C(C)(C)N)c34)cnc2[C@H]1C [Compound 7] | 0.28 | 11 | –
25 | C[C@@H]1c2nc(Nc3cc4c(C(C)(C)N)cnc(O[C@H]5C[C@@H](S(=O)(=O)C6CC6)C5)c4cn3)ccc2C(=O)OC1(C)C [Compound 102] | 0.14 | 15 | –
26 | CCS(=O)(=O)[C@H]1C[C@@H](Oc2ccc(C(C)(C)N)c3cc(Nc4ccc5c(n4)[C@@H](C)C(C)(C)OC5=O)ncc23)C1 [Compound 63] | 0.09 | 14 | –
27 | CC[C@@](C)(N)c1cnc(O[C@H]2C[C@@H](S(C)(=O)=O)C2)c2cnc(Nc3ccc4c(n3)[C@@H](C)[C@H](C)OC4=O)cc12 [Compound 38] | 0.12 | 5 | –
28 | CCS(=O)(=O)[C@H]1C[C@@H](Oc2ncc(C(C)(C)N)c3cc(Nc4ccc5c(n4)[C@@H](C)C(C)(C)OC5=O)ncc23)C1 [Compound 80] | 0.08 | 9 | –
29 | CCC[C@@](C)(N)c1cnc(O[C@H](C)CCS(C)(=O)=O)c2cnc(Nc3ccc4c(n3)[C@@H](C)C(C)(C)OC4=O)cc12 (single isomer, unassigned) [Compound 126] | 0.17 | 21 | –
30 | CC[C@@](C)(N)c1cnc(O[C@H](C)CCS(C)(=O)=O)c2cnc(Nc3ccc4c(n3)[C@@H](C)[C@H](C)OC4=O)cc12 [Compound 52, (7S,8R)-2-((5-((R)-2-Aminobutan-2-yl)-8-(((R)-4-(methylsulfonyl)butan-2-yl)oxy)-2,7-naphthyridin-3-yl)amino)-7,8-dimethyl-7,8-dihydro-5H-pyrano[4,3-b]pyridin-5-one] | 0.13 | 9 | –
31 | C[C@@H]1OC(=O)c2ccc(Nc3cc4c(C(C)(C)N)cnc(OC5CN(S(C)(=O)=O)C5)c4cn3)nc2[C@H]1C [Compound 15] | 0.1 | 13 | –

From patent US12202844B2, “MAP4K1 inhibitors” (Blueprint Medicines Corporation, priority 2021, dated 2025)
